Experimental findings from patent publication US20090215813A1, “HISTONE DEACETYLASE INHIBITORS AS IMMUNOSUPPRESSANTS” (priority 2003, published 2009) are described below.

Assay [1] concerns spleen cells from CBA and BALB/c mice. Description: Allogeneic two-way mixed lymphocyte reaction (MLR). The format is cell-based. To be noted: two-way mouse MLR, 3H-thymidine incorporation after four days, read-out: IC50 value (concentration required for 50% inhibition of proliferation). The method, then: Cellular Assay: Allogeneic Mixed Lymphocyte Reaction (MLR)
The two-way MLR is performed according to standard procedures (J. Immunol. Methods, 1973, 2, 279 and Meo T. et al., Immunological Methods, New York, Academic Press, 1979, 227-39). Briefly, spleen cells from CBA and BALB/c mice (1.6×10^5 cells from each strain per well in flat bottom tissue culture microtiter plates, 3.2×10^5 in total) are incubated in RPMI medium containing 10% FCS, 100 U/ml penicillin, 100 μg/ml streptomycin (Gibco BRL, Basel, Switzerland), 50 μM 2-mercaptoethanol (Fluka, Buchs, Switzerland) and serially diluted compounds. Seven three-fold dilution steps in duplicates per test compound are performed. After four days of incubation 1 μCi ^3H-thymidine is added. Cells are harvested after an additional five-hour incubation period, and incorporated ^3H-thymidine is determined according to standard procedures. Background values (low control) of the MLR are the proliferation of BALB/c cells alone. Low controls are subtracted from all values. High controls without any sample are taken as 100% proliferation. Percent inhibition by the samples is calculated, and the concentrations required for 50% inhibition (IC50 values) are determined. In this assay, the agents of the invention have IC50 values in the range of 1 nM to 10 μM, preferably from 1 nM to 500 nM.
A general note: Dividing cells build labelled thymidine or BrdU into new DNA.

For assay [2], the system named is Balb/c (H-2d) heart graft in C57BL/6J (H-2b) recipients. Description: Acute rejection, heterotopic heart transplantation, graft survival. It is filed as in vivo, mice. The note with it: versus saline, across dosing schedules. The method, then:
Balb/c (H-2^d) mice are used as donor animals, and e.g. C57BL/6J (H-2^b) mice as recipients. The heart is removed from the donors according to known procedures and stored in cold saline (4° C.). The recipient animals are anaesthetised with isofluorane. […] Blood vessels are dissected free from the fascia for a length of 3-5 mm, ligating and dividing any small branches. Vessels are occluded, first proximally and then distally. An arteriotomy and venotomy is performed, and lumens are flushed with heparinised physiological saline. […] The distal ligature is removed, then the proximal ligature. The suture lines are checked for leakage. Then the graft is tethered retroabdobminally. The abdomen is flooded with warm saline (37° C.) and the wound is closed. Graft function is monitored daily by palpation of the abdomen. Rejection is concluded when the graft stops beating. Animals are treated with a 100 μL subcutaneous injection of saline or a solution of a HDAI, e.g. the compound of formula (I), e.g. N-hydroxy-3-[4-[[[2-(2-methyl-1H-indol-3-yl)-ethyl]-amino]methyl]phenyl]-2E-2-propenamide in lactate buffer pH 5.5 according to the dosing schedule shown in Table 1 below: […]

Assay [3] relates to heart graft, strain combination Lewis and BN. As to the kind of experiment: Rat heart transplantation, graft survival and histology. It is filed as in vivo. The note with it: for effect of co-administration: test not named. The source says:
Rat Heart Transplantation
The strain combination used is Male Lewis (RT1 haplotype) and BN (RT1 haplotype). The animals are anaesthetized using inhalation isofluorane. […] The aorta is ligated and divided distal to the first branch and the brachiocephalic trunk is divided at the first bifurcation. The left pulmonary artery is ligated and divided and the right side divided but left open. All other vessels are dissected free, ligated and divided and the donor heart is removed into iced saline.
The recipient is prepared by dissection and cross-clamping of the infra-renal abdominal aorta and vena cava. The graft is implanted with end-to-side anastomoses, using 10/0 monofilament suture, between the donor brachiocephalic trunk and the recipient aorta and the donor right pulmonary artery to the recipient vena cava. The clamps are removed, the graft tethered retroabdominally, the abdominal contents washed with warm saline and the animal is closed and allowed to recover under a heating lamp. Animals are treated with saline (control); an HDAI compound e.g. a compound of formula (I), e.g. N-hydroxy-3-[4-[[[2-(2-methyl-1H-indol-3-yl)-ethyl]-amino]methyl]phenyl]-2E-2-propenamide (“compound P1”); 40-O-(2-hydroxyethyl)-rapamycin (“compound P2”) prepared according to the methods described in WO 94/09010; FTY720 (“compound P3”) prepared according to Example 28 of WO 94/08943, or combinations of the each as indicated. Graft survival is monitored by daily palpation of the beating donor heart through the abdominal wall. Rejection is considered to be complete when heart beat stops. At that point the animal is euthanized and the transplanted heart is fixed for histology. […] The scale for grading for acute rejection is 1=slight; 2=moderate; 3=marked; 4=severe.

For the molecule `Cc1[nH]c2ccccc2c1CCNCc1ccc(/C=C/C(=O)NO)cc1` [Compound P1, N-hydroxy-3-[4-[[[2-(2-methyl-1H-indol-3-yl)-ethyl]-amino]methyl]phenyl]-2E-2-propenamide], the IC50 in assay [1] came to 9 nM. For the same molecule, the increases graft survival in assay [2] is 2-5 times the number of days. In addition, the “Median survival time (MST)” value in assay [3] (0.3 mg/kg/d s.c., rat) is reported as 6; in assay [3] (1.0 mg/kg/d s.c., rat) it was greater than 28. Besides, the “Survival (days) for each individual graft” value in assay [3] (1.0 mg/kg/d s.c., rat) is >28, >28, >28 days. Besides, the effect of co-administration result in assay [3] (co-administered with a mTOR inhibitor, e.g. 40-O-(2-hydroxyethyl)-rapamycin) is recorded as “synergistic effect”; in assay [3] (co-administered with a sphingosine 1-phosphate receptor agonist), “synergistic effect”.

As for `CO[C@H]1C[C@@H]2CC[C@@H](C)[C@@](O)(O2)C(=O)C(=O)N2CCCC[C@H]2C(=O)O[C@H]([C@H](C)C[C@@H]2CC[C@@H](OCCO)[C@H](OC)C2)CC(=O)[C@H](C)/C=C(\C)[C@@H](O)[C@@H](OC)C(=O)[C@H](C)C[C@H](C)/C=C/C=C/C=C/1C` [Compound P2, 40-O-(2-hydroxyethyl)-rapamycin, reference compound], the “Median survival time (MST)” value in assay [3] (0.3 mg/kg/d p.o., rat) was determined as 7.

Take `CCCCCCCCc1ccc(CCC(N)(CO)CO)cc1` [Compound P3, FTY720, reference compound]: the “Median survival time (MST)” value in assay [3] (0.1 mg/kg/d p.o., rat) came to 7.5.
